The molecules below were run against T1, human oxytocin receptor (Homo sapiens, UniProt P30559) (assay: Oxytocin binding in CHO cell membranes expressing human oxytocin receptors). Settings: 100 nM, [3H]oxytocin.
T1 sequence (P30559 1-389): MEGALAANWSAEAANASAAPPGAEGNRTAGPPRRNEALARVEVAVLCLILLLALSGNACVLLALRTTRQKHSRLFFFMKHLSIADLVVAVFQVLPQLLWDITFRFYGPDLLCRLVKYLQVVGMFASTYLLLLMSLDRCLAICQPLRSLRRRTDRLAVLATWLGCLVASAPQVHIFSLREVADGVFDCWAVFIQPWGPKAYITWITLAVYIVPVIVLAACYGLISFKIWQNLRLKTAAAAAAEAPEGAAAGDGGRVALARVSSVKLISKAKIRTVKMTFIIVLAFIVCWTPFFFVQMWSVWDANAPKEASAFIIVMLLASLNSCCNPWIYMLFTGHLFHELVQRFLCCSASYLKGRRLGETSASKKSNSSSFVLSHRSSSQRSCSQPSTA
From the text: Oxytocin Binding in Chinese Hamster Ovary Cell Membranes Expressing Human Oxytocin Receptors
Chinese Hamster Ovary (CHO) cells stably transfected with the human oxytocin receptor (cf. Tanizawa et al., U.S. Pat. No. 5,466,584 (1995) to Rohto Pharmaceutical Co. Ltd., Osaka, Japan) were obtained from M. Thibonnier, Case Western Reserve University School of Medicine, Cleveland, Ohio. A. Passaging and Amplification of Cells: CHO cells transfected with the human oxytocin receptors obtained from M. Thibonnier (pcDNA3.1 vector) are allowed to grow to confluency (approx. >90%) in T-150 flasks under sterile conditions, in a cell culture medium of F-12 Nutrient Mixture (HAM) with L-glutamine (Gibco Cat. # 11765-054) containing 15 mM HEPES (Gibco Cat. # 15630-080), 1% antibiotic/antimycotic (add 5 mL 100×, Gibco Cat. # 15240-062 per 500 mL F-12), 400 μg/mL of Geneticin (add 4 mL of 50 mg/mL per 500 mL F-12) and 10% Fetal Bovine Serum (Qualified, heat inactivated, Gibco Cat. # 16140-063). The medium is removed by aspiration and the cells are washed with 10 mL of Hank's Balanced Salt solution (Gibco Cat. # 14175-095). The salt solution is removed by aspiration and the cells trypsinized with 5 mL of trypsin-EDTA (0.05% trypsin, 0.53 mM EDTA-4Na, Gibco Cat. # 25300-070) for 1 min The trypsin is removed by aspiration and the cells dislodged by tapping. Cell Culture medium (e.g. 30 mL for 1:30 split) is immediately added and mixed well to inactivate trypsin. 1 mL of detached cells is added to new culture flasks containing fresh Cell Culture medium (e.g. into 25 mL per T-150 flask), and mixed gently. The cells are incubated at 37° C. in 5% CO2. The medium is changed at 3 to 4 days interval (or as appropriate). The cells grow to confluency (approx. >75%–95%) within 7–8 days. All steps are done under sterile conditions. B. Membrane Preparation: The cells are washed twice gently with Hank's Balanced Salt solution (eg, use 10 mL per T-150 flask). The excess solution is removed and the cells bathed for 15–30 min. in an enzyme-free Cell Dissociation Buffer (eg, use 8 mL Hank's Based, Gibco Cat. # 13150-016 per T-150 flask) until cells are loosened. The contents are transferred to centrifuge tubes (50 mL size) kept in ice bath. All subsequent steps are done at 4° C. The tubes are centrifuged at 300×g for 15 min (1380 rpm on SORVAL, Model RT6000D, using rotor for 50 mL tubes). The supernatant is discarded and the cells suspended in homogenizing buffer (10 mM Tris-HCl containing 0.25 M sucrose and 1 mM EDTA, pH 7.4) ensuring that the volume of the buffer is about ten times the volume of the cell pellet. The cells are pooled into a centrifuge tube (50 mL) and homogenized with a Polytron at setting 6 for 10 sec. The homogenate is transferred into a Potter-Elvjehm homogenizer and homogenized with 3 strokes. The homogenate is centrifuged at 1500×g for 10 min at 4° C. (3100 rpm using SORVAL, model RT6000D, using rotor for 50 mL tubes). The pellet is discarded. The supernatant is centrifuged at 100,000×g for 60 min. at 4° C. (Beckman L8-80M ultracentrifuge; spin at 37,500 rpm with rotor type 70 Ti for 50 mL tubes; 38,000 rpm with type 80Ti for 15 mL tubes; or 35,800 rpm with rotor type 45Ti). The supernantant is discarded and the pellet suspended in 3 to 4 mL of Tris buffer (50 mM TRIS-HCl, pH 7.4). The protein content is estimated by the Bradford or Lowry method. The volume of the membrane suspension is adjusted with the membrane buffer (50 mM Tris-HCl containing 0.1% BSA and 0.1 mM PMSF) to give 3.0 mg/mL (or as appropriate) of protein. The membranes are aliquoted and stored at −70° C. C. Radioligand Binding Assay: In wells of a 96-well format microtiter plate, is added 90, 110 or 130 μL (to make up a final volume of 200 μL) of assay buffer containing 50 mM of Tris-HCl (pH 7.4), […], 1 mg % aprotinin, 1 mg % leupeptin, 2 mg % 1,10-phenanthroline, 10 mg % trypsin inhibitor, and 0.1 mM PMSF. […]
For O=C(NNC(=O)C1CC1)c1ccc2n1Cc1ccccc1N(C(=O)c1ccc(C3CCCCC3)cc1)C2 [Example 13, 10-(4-Cyclohexyl-benzoyl)-N′-(cyclopropylcarbonyl)-10,11-dihydro-5H-pyrrolo[2,1-c][1,4]benzodiazepine-3-carbonyl-hydrazide], the “OT % inhibition at 100 nM” value was 73%.
For Cc1ccccc1C(=O)NNC(=O)c1ccc2n1Cc1ccccc1N(C(=O)c1ccc(C3CCCCC3)cc1)C2 [Example 12, 10-(4-Cyclohexyl-benzoyl)-N′-(2-methylbenzoyl)-10,11-dihydro-5H-pyrrolo[2,1-c][1,4]benzodiazepine-3-carbonyl-hydrazide], the “OT % inhibition at 100 nM” value was 47%.
With O=C(c1ccc2n1Cc1ccccc1N(C(=O)c1ccc(C3CCCCC3)cc1)C2)N1CCN(c2ccncc2)CC1 [Example 54, [10-(4-Cyclohexyl-benzoyl)-10,11-dihydro-5H-pyrrolo[2,1-c][1,4]benzpdiazepin-3-yl][4-(4-pyridinyl)-1-piperazinyl]-methanone] the “OT % inhibition at 100 nM” value was 4%.
For O=C(O)c1ccc2n1Cc1ccccc1N(C(=O)c1ccc(C3CCCCC3)cc1)C2 [Example 22, 10-(4-Cyclohexyl-benzoyl)-10,11-dihydro-5H-pyrrolo[2,1 c][1,4]benzodiazepine-3-carboxylic acid], the “OT % inhibition at 100 nM” value was 34%.
O=C(c1ccc2n1Cc1ccccc1N(C(=O)c1ccc(C3CCCCC3)cc1)C2)N1CCN(CCO)CC1 [Example 48, [10-(4-Cyclohexyl-benzoyl)-10,11-dihydro-5H-pyrrolo[2,1-c][1,4]benzodiazepin-3-y][4-(2-hydroxyethyl)-1-piperazinyl]methanone] was tested, and the “OT % inhibition at 100 nM” value was 78%.

Same assay, conditions: 100 nM, [3H]oxytocin, read-out: OT % inhibition at 100 nM
CN(C)CCN(C)C(=O)c1ccc2n1Cc1ccccc1N(C(=O)c1ccc(C3CCCCC3)cc1)C2 [Example 34, 10-(4-Cyclohexyl-benzoyl)-N-[2-(dimethylamino)-ethyl]-N-methyl-10,11-dihydro-5H-pyrrolo[2,1-c][1,4]benzodiazepine-3-carboxamide] gave an inhibition at 0.1 µM of -5%.
CN(C)/C=C/C(=O)c1ccc2n1Cc1ccccc1N(C(=O)c1ccc(C3CCCCC3)cc1)C2 [Example 20, (E)-1-[10-(4-Cyclohexyl-benzoyl)-10,11-dihydro-5H-pyrrolo[2,1-c][1,4]benzodiazepin-3-yl]-3-(dimethylamino)-2-propen-1-one] was tested, and the inhibition at 0.1 µM was 43%.
For O=C(c1ccc2n1Cc1ccccc1N(C(=O)c1ccc(C3CCCCC3)cc1)C2)N1CCN(CCN2CCOCC2)CC1 [Example 42, [10(4-Cyclohexyl-benzoyl)-10,11-dihydro-5H-pyrrolo[2,1-c][1,4]benzodiazepin-3-yl]{4-[2-(4-morpholinyl)ethyl]-1-piperazinyl}methanone], the inhibition at 0.1 µM was 65%.
Molecule COc1ccc(NC(=O)c2ccc3n2Cc2ccccc2N(C(=O)c2ccc(C4CCCCC4)cc2)C3)cc1 [Example 29, 10-(4-Cyclohexyl-benzoyl)-10,11-dihydro-5H-pyrrolo[2,1-c][1,4]benzodiazepine-3-carboxylic acid (4-methoxy-phenyl)-amide] has an inhibition at 0.1 µM of 42%.
For CN(N)C(=O)c1ccc2n1Cc1ccccc1N(C(=O)c1ccc(C3CCCCC3)cc1)C2 [Example 21, 10-(4-Cyclohexyl-benzoyl)-N-methyl-10,11-dihydro-5H-pyrrolo[2,1-c][1,4]benzodiazepine-3-carboxylic acid hydrazide], the inhibition at 0.1 µM was 68%.
Molecule CN1CCN(C(=O)c2ccc3n2Cc2ccc(C(=O)O)cc2N(C(=O)c2ccc(C4CCCCC4)cc2)C3)CC1 [Example 3, 10-(4-Cyclohexyl-benzoyl)-3-[(4-methyl-1-piperazinyl)carbonyl]-10,11-dihydro-5H-pyrrolo[2,1-c][1,4]benzodiazepine-8-carboxylic acid] has an inhibition at 0.1 µM of -2%.
CN1CCCN(C(=O)c2ccc3n2Cc2ccccc2N(C(=O)c2ccc(C4CCCCC4)cc2)C3)CC1 [Example 30, [10-(4-Cyclohexyl-benzoyl)-10,11-dihydro-5H-pyrrolo[2,1-c][1,4]benzodiazepin-3-yl](4-methyl-[1,4]-diazepan-1-yl)-methanone] showed an inhibition at 0.1 µM of 94%.

Same assay, conditions: [3H]oxytocin, value in parentheses, read-out: OT (IC50)
For O=C(c1ccc2n1Cc1ccccc1N(C(=O)c1ccc(C3CCCCC3)cc1)C2)N1CCN(c2ccccn2)CC1 [Example 28, [10-(4-Cyclohexyl-benzoyl)-10,11-dihydro-5H-pyrrolo[2,1-c][1,4]benzodiazepine 3-yl][4-(2-pyridinyl)-1-piperazinyl]-methanone], the IC50 was 111 nM.
For C/C(=N\C(=O)c1ccc2n1Cc1ccccc1N(C(=O)c1ccc(C3CCCCC3)cc1)C2)N(C)C [Example 18], the IC50 was 4.36 nM.
With CC(=O)c1ccc2n1Cc1ccccc1N(C(=O)c1ccc(C3CCCCC3)cc1)C2 [Example 6, 1-[10-(4-Cyclohexyl-benzoyl)-10,11-dihydro-5H-pyrrolo[2,1-c][1,4]benzodiazepin-3-yl]-ethanone] the IC50 was 105 nM.

— patent US7202239B2, “Cyclohexylphenyl carboxamides tocolytic oxytocin receptor antagonists” (Wyeth, priority 2001, dated 2007)
